# Literature values, collected in patent US20160279124A1, “Method for Treating Addiction” (priority 2015, published 2016).
# Tested on: opioid use
# Details: clinic and office based medical detox and Naltrexone treatment: pill, injectable and implant; for opioid use
smiles,measurement,value
O=C1CC[C@@]2(O)[C@H]3Cc4ccc(O)c5c4[C@@]2(CCN3CC2CC2)[C@H]1O5 [Naltrexone],Success,8% for
